Patent US7022513B2, “Cell based signal generation” (priority 1999, dated 2006)

System: strain CY7284
Assay: lacZ assay, Cp5766 in strain CY7284 with integrated LexAop-lacZ
Assay type: cell-based, yeast
Conditions: after 3 hours of treatment, data not shown
Method: In addition to transformation of the chimeric construct, the construct may also be integrated into the yeast strain. […] The lacZ assay was performed as described above.

For a-factor, which “increase of β-galactosidase activities” value is on record?
The value was 63 fold.
